Results: publication PMC7466261, “In Silico and In Vitro Analysis of Multifunctionality of Animal Food-Derived Peptides” (Foods, 2020)
Read-outs that look alike come from different tables or passages of the source. Where a SMILES comes first, the peptide text is derived from it. Where no end group is shown, it is not given here.

Key:
[1] = target: T1, angiotensin-converting enzyme (ACE) (Oryctolagus cuniculus, UniProt P12822); test: ACE-inhibitory activity, fluorescence assay with Abz-Gly-Phe(NO2)-Pro; type: biochemical
T1 sequence (P12822 34-1310): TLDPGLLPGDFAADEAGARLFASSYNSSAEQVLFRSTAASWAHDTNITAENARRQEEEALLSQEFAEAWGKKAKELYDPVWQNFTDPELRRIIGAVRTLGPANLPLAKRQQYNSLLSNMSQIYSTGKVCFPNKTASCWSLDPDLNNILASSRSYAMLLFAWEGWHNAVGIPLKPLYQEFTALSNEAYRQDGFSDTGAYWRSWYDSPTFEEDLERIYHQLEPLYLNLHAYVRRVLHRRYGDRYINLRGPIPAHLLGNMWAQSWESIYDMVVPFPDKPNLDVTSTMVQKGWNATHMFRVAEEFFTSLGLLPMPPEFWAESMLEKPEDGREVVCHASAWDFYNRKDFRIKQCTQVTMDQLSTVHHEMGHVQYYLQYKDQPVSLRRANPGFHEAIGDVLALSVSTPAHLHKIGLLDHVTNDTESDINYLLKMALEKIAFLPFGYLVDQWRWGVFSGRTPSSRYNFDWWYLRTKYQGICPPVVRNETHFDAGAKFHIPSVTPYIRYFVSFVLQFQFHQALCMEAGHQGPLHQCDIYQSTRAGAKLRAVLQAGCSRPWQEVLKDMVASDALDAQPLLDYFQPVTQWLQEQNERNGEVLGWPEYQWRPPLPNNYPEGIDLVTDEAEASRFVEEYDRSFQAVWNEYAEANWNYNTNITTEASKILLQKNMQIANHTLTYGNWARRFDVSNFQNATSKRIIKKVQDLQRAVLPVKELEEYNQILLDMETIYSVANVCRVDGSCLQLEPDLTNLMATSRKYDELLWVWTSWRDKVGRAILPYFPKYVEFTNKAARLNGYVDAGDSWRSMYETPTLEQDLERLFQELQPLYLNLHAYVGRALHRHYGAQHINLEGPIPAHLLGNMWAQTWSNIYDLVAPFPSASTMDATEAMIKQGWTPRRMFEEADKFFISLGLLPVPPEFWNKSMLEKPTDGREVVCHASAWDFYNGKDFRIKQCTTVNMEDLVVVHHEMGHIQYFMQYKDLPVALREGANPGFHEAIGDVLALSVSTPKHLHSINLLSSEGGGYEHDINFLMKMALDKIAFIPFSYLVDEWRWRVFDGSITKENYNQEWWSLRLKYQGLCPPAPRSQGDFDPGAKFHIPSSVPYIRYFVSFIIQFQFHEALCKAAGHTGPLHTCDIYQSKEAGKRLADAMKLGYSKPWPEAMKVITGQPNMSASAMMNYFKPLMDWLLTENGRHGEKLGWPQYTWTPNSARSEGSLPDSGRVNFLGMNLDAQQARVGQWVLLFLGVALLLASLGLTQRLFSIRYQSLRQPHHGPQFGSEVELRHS
Experimental: ACE (1 U/mL) was diluted (0.04 U/mL) in 150 mM Tris buffer containing 0.1 μM ZnCl2 (pH 8.3). Forty microliters of sample (or MilliQ water for blank and control) were added to a black multi-well plate (Porvair, Leatherhead, UK). Then, 40 μL of ACE were added, and the reaction started after the addition of 160 μL of the substrate. The plate was incubated at 37 °C for 30 min, and the fluorescence was measured in a FLUOstar OPTIMA plate reader (BMG Labtechnologies GmbH, Offenburg, Germany) with 320 nm excitation and 420 nm emission filters.

[2] = Oxygen radical absorbance capacity (ORAC)-FL assay; settings: mean ± SD
Experimental: An oxygen radical absorbance capacity (ORAC)-FL assay was used based on the protocol previously optimized. The reaction was performed at 37 °C in 75 mM phosphate buffer (pH 7.4). The final assay mixture volume was 200 µL, containing 70 nM FL, 12 mM AAPH, and antioxidant [(Trolox, 1–8 µM) or sample (at different concentrations)]. Fluorescence was measured during 137 min in a FLUOstar OPTIMA plate reader (BMG Labtech) with 485 nm excitation and 520 nm emission filters. The equipment was controlled by the FLUOstar Control ver. 1.32 R2 software for fluorescence measurement. Samples were analyzed in triplicate. The final ORAC-FL value was expressed as μmol Trolox equivalents (TE) per μmol peptide.

[3] = ABTS assay (TEAC); settings: mean ± SD
Experimental: Antioxidant activity was measured using a previously optimized method with some modifications. A mixture of 7 mM ABTS stock solution and 2.45 mM potassium persulfate was kept in the dark at room temperature for 12-16 h to form the ABTS radical cation (ABTS^•+). The ABTS^•+ solution was diluted in 5 mM of phosphate buffer solution (PBS) (pH 7.4) to an absorbance of 0.70 ± 0.02 at 734 nm at 30 °C. Two mL of diluted ABTS^•+ solution were mixed with 20 μL of sample or Trolox (0–0.015 μmol), and the absorbance was recorded at 734 nm after 10 min incubation at 30 °C. The Trolox equivalent antioxidant capacity (TEAC) value was expressed as μmol TE per μmol peptide. Each sample was analyzed in triplicate.

[4] = target: T1, angiotensin-converting enzyme (ACE); settings: BIOPEP-UWM; read-out: ACE inhibitory IC50; cited from earlier work
[5] = target: opioid, (3H)-naloxone binding; settings: database value; read-out: Opioid agonist IC50, inhibition of (3H)-naloxone binding; cited from earlier work
[6] = test system: Caco-2 cells; test: Cell viability (MTT), direct effects, Caco-2; type: cell-based, human; settings: Caco-2, 1–100 µM, 24 h
Experimental: (§1) Cell viability was determined using the MTT assay. […] Samples were analyzed in triplicate.

[7] = test system: RAW264.7 cells; test: Cell viability (MTT), direct effects, RAW264.7; type: cell-based, mouse; settings: RAW264.7, 1–100 µM, 24 h
Experimental: as §1

[8] = test system: Caco-2 cells; test: Intracellular ROS (DCFH), t-BOOH-stressed Caco-2; type: cell-based, human; settings: stressed Caco-2 (1 mM t-BOOH)
Experimental: The intracellular ROS levels were detected using the ROS-sensitive fluorescent dye, DCFH, as previously described. Caco-2 cells were plated in 48-well plates (density of 4.75 × 10^4 cells/well) and RAW264.7 cells in 24-well plates (density of 2.0 × 10^5 cells/well) and incubated for 7 days and 14 h, respectively. After this time, cells were treated with peptides as previously described for 24 h. Then, DCFH was dissolved in HBSS and added to cells at a final concentration of 5 µM solution. Cells were incubated for 30 min at 37 °C. The probe was removed, and cells were incubated with PBS (direct effects) or t-BOOH (protective effects) for 60 min, measuring the fluorescence after 60 min in a FLUOstar OPTIMA plate reader (BMG Labtech) with 485 nm excitation and 520 nm emission filters. The results were expressed as percentage of the control, which was considered as 100%. The assay was run in triplicate.

[9] = test system: macrophages RAW264.7; settings: RAW264.7 stimulated with 0.25 mM t-BOOH, pre-treated with 25 µM; stimulated cells alone 70.97%
Experimental: The human colorectal adenocarcinoma Caco-2 and the mouse macrophage RAW 264.7 cell lines were obtained from the American Type Culture Collection (ATCC, Rockville, MD, USA). Caco-2 and RAW264.7 cells were grown in High-Glucose DMEM supplemented with 10% (v:v) FBS, 1% (v:v) penicillin/streptomycin/amphotericin B, and 1% (v:v) non-essential amino acids solution. Cells were maintained in plastic 75-cm^2 culture flasks at 37 °C in a humidified incubator containing 5% CO2 and 95% air.
Cells were incubated for 24 h with various concentrations of selected synthetic peptides. To evaluate both the direct and protective effects against oxidative stress, the incubation period was followed by 1.5 h-treatment with culture medium or tert-butyl hydroperoxide (t-BOOH, 1 mM for Caco-2 cells and 0.25 mM for RAW264.7 cells), respectively, and different biomarkers were evaluated.
Cell viability was determined using the MTT assay. Caco-2 and RAW264.7 cells were seeded onto 96-well plates (Corning Costar Corp., Corning, NY, USA) at a density of 1.0 × 10^4 cells/cm^2 and incubated for 9 days and 24 h, respectively. […] The supernatant was aspirated, the formazan crystals were solubilized in DMSO:ethanol (1:1, v:v), and the absorbance was measured at 570 nm in a FLUOstar OPTIMA plate reader (BMG Labtech). Results were expressed as percentage of the control, considered as 100%. Samples were analyzed in triplicate.

[10] = target: dipeptidyl peptidase IV (DPP-IV); settings: MBPDB; read-out: Antidiabetic IC50, DPP-IV inhibition; cited from earlier work
[11] = parameters: method as in doi:10.1007/s13594-015-0226-5; settings: MBPDB; cited from earlier work
[12] = test system: mucin secretion; settings: MBPDB; cited from earlier work
[13] = test system: murine splenocytes; parameters: method as in doi:10.1016/j.idairyj.2010.02.013; settings: MBPDB; cited from earlier work
[14] = parameters: method as in PMID 10908049; settings: BIOPEP-UWM; cited from earlier work
[15] = highest peptide concentration analyzed 1000 µM, read-out: ACE Inhibitory Activity (IC50-µM), symbol
[16] = mean ± SD, read-out: ACE Inhibitory Activity (IC50-µM)

| Molecule | IC50 [1, 15] [µM] | Antioxidant Activity ORAC [2] [µmol TE/µmol peptide] | Antioxidant Activity TEAC [3] [µmol TE/µmol peptide] | IC50 [1, 16] [µM] | Cell viability, direct effect [6] | Cell viability, direct effect [7] | other results |
| --- | --- | --- | --- | --- | --- | --- | --- |
| CC(C)C[C@H](NC(=O)CNC(=O)[C@@H](N)Cc1ccc(O)cc1)C(=O)N[C@@H](Cc1ccccc1)C(=O)O [YGLF] (H-YGLF-OH; N-terminus and C-terminus assumed) | > 1000 | 0.89 ± 0.01 | 2.08 ± 0.06 | – | – | – | IC50 [4]: 733 µM; IC50 [5]: 300 µM |
| YLGYLE [YLGYLE] | – | – | – | 85.8 ± 4.66 | did not evoke changes in cell viability | did not evoke changes in cell viability | ROS levels (% control) ([8]; 1 µM peptide): 175.06 ± 11.13%; ROS levels (% control) ([8]; 10 µM peptide): 174.44 ± 11.60% |
| C[C@@H](O)[C@H](NC(=O)[C@H](Cc1c[nH]c2ccccc12)NC(=O)[C@@H]1CCCN1C(=O)[C@@H](N)Cc1ccc(O)cc1)C(=O)O [YPWT] (H-YPWT-OH) | > 1000 | – | – | – | did not evoke changes in cell viability | did not evoke changes in cell viability | Percentage of viable cells (% control) [9]: 79.58% |
| YPFPGPIPN | – | 1.26 ± 0.06 | 1.22 ± 0.17 | – | – | – | IC50 [10]: 6.7 µM |
| YFYPEL [YFYPEL] | – | – | – | 8.82 ± 0.58 | did not evoke changes in cell viability | did not evoke changes in cell viability | ROS levels (% control) ([8]; 1 µM peptide): 168.88 ± 17.80% |
| CC(C)C[C@H](NC(=O)[C@H](CC(C)C)NC(=O)[C@@H](N)Cc1ccc(O)cc1)C(=O)O [YLL] (H-Tyr-Leu-Leu-OH; N-terminus and C-terminus assumed) | – | 0.78 ± 0.03 | 2.55 ± 0.29 | 518.5 ± 3.5 | – | – | FRAP [11]: FRAP = 81.76 mmol Fe/mol peptide ** |
| YLLF (UniProt P02754 118-121, looked up, fragment) [synthetic peptide, β-Lg f(102–105)] | – | 0.91 ± 0.04 | 1.96 ± 0.30 | – | – | – | IC50 [4]: 172 µM; IC50 [5]: 160 µM; Mucin secretion (opioid agonist) [12]: Stimulation of mucin secretion **; Stimulation of murine splenocytes (listed as cytotoxic) [13]: Stimulation of murine splenocytes ** |
| C[C@@H](O)[C@H](NC(=O)[C@H](Cc1c[nH]c2ccccc12)NC(=O)[C@@H]1CCCN1)C(=O)O [PWT] (H-Pro-Trp-Thr-OH; N-terminus and C-terminus assumed) | > 1000 | 2.15 ± 0.07 | 0.73 ± 0.07 | – | – | – | Linoleic acid peroxidation (antioxidant) [14]: Inhibition of linoleic acid peroxidation * |
